On the set-up of data set [1]: species or system Cynomolgus Monkeys. As to conditions: cynomolgus monkey, in vivo, po, 10 mg/kg. As for the experimental part: A cross-over study design consisting of two groups with two animals per group was conducted to examine the pharmacokinetic properties of compound I-1 of the present disclosure.
Compound I-1 and AHU377 were administered to each group as follows: compound I-1 on Day 0 followed by AHU377 on Day 2 (Group 1), AHU377 on Day 0 followed by compound I-1 on Day 2 (Group 2). Each animal received a single 10 mg/kg (5 ml/kg) oral gavage dose of the specified study drug on the specified day. The animals were 2.5 to 3.5 years of age and weighed between 3.1 and 4.3 kg at the beginning of the study. Both compounds were formulated in 0.5% methylcellulose (400 cp) and 0.1% Tween 80 (w,v) in water. Blood samples for pharmacokinetics analysis were collected at t=0, 0.25, 0.5, 1, 2, 4, 8, 24 and 48 hours post dose on Day 0 and Day 2. Plasma was prepared by collecting whole blood samples into tubes containing K2EDTA and NaF (final concentrations: ˜1 mg/mL (K2EDTA) and ˜2 mg/mL (NaF)). These tubes were kept in an ice bath prior to centrifugation at approximately 2,000 rcf for 10 minutes at approximately 5° C. To each resultant plasma sample (target volume 200 μL), 4 μL of 50% phosphoric acid (v/v) was added.
[^13C4]-LBQ657 was added as an internal standard to the pharmacokinetic (PK) samples and calibration standards prior to analysis by LC-MS/MS. The LC-MS system consisted of an API6500+ mass spectrometer coupled to an Agilent 1290 HPLC system equipped with a CTC Pal autosampler. The mass spectrometer was operated in the positive ion mode.

Data set [2] can be described thus: Hygroscopicity, weight gain at 90% RH. As to conditions: after exposure to 90% RH. The format is physicochemical. The text has this:
The weight gain of compound I-1 after exposure to 90% RH (relatively humidity) was 0.34%, while that of AHU377 under the same conditions was 3.4%. […] On the other hand, AHU377 is a wax-like solid, which needs to be properly processed before further pharmaceutical processing such as weighing, dispensing and filling.

Turning to `CCOC(=O)[C@H](C)C[C@@H](Cc1ccc(-c2ccccc2)cc1)NC(=O)CCC(=O)N[C@@H](CC(C)C)C(=O)O` [Compound I-1, (4-(((2S,4R)-1-([1,1′-biphenyl]-4-yl)-5-ethoxy-4-methyl-5-oxopentan-2-yl)amino)-4-oxobutanoyl)-L-leucine], in data set [1], the “compound I-1 concentrations in plasma” value was “below the lower limit of quantitation” and the tolerability result is reported as “well tolerated”. In addition, in data set [1] (male), the “relative bioavailability compared to AHU377 based on AUC values” stood at 72% and the “relative bioavailability compared to AHU377 based on Cmax values” turned out to be 30%. Further, in data set [2], the “weight gain (hygroscopicity)” value is reported as 0.34%.

Source of the values: patent US11426375B2, “Substituted bisphenyl butanoic ester derivatives as NEP inhibitors” (NOVARTIS AG, priority 2019, dated 2022).
